Test results as given in ChEMBL document CHEMBL1201862, “PubChem BioAssay data set” (2004).
Activity calls are given as the source filed them.

Experiments:
[1] = target: T1, Type-1 angiotensin II receptor (Homo sapiens, UniProt P30556); assay: AT1 receptor agonists, dose response, selectivity assay for APJ receptor agonist project, cell-based, uHTS hits (AID 488865); format: functional;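 further: beta-arrestin recruitment to AT1 measured by enzyme fragment complementation luminescence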
T1 sequence (P30556 whole entry): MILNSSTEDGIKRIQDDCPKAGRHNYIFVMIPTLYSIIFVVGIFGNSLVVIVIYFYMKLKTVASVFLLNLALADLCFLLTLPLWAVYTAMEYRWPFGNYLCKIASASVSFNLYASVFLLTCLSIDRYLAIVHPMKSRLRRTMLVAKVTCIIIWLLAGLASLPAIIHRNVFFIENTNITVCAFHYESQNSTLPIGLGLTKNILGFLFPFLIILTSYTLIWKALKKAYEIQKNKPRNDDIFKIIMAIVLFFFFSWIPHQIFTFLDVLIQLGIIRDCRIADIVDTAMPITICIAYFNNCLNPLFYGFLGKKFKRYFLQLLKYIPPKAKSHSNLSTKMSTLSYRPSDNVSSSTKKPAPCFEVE

[2] = target: T2, Runt-related transcription factor 1/Core-binding factor subunit beta (Homo sapiens, UniProt Q01196+Q13951); assay: inhibitors of RUNX1 Runt–CBFb-SMMHC binding, primary screen, biochemical, FRET, Cerulean-Runt, Venus-CBFb-SMMHC, uHTS (AID 1434); format: protein assay;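 further: partner is the CBFb-SMMHC leukemia fusion protein rather than wild-type CBFb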
T2 sequence (Q01196 whole entry, the tested form may be a part): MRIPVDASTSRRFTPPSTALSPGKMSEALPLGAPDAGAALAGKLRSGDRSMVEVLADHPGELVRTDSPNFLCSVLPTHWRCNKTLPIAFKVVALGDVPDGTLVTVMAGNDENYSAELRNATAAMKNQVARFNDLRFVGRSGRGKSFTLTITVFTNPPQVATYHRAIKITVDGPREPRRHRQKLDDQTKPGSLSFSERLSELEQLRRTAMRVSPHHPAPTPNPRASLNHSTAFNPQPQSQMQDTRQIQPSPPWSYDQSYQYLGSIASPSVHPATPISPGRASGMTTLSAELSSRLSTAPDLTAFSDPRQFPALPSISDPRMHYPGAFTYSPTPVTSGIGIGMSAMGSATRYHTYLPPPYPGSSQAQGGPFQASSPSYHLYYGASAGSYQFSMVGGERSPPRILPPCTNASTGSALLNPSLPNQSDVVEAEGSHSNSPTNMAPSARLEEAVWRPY
T2 sequence (Q13951 whole entry, the tested form may be a part): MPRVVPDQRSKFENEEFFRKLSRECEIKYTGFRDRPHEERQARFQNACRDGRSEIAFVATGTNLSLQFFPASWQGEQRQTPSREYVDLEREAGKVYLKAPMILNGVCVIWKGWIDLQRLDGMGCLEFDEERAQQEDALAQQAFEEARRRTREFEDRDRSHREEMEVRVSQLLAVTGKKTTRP

[3] = target: T2, Runt-related transcription factor 1/Core-binding factor subunit beta; assay: inhibitors of RUNX1 Runt–CBFb-SMMHC binding, biochemical, TR-FRET (AID 1438); format: protein assay
Coagulation factor XII = target: T3, Coagulation factor XII (Homo sapiens, UniProt P00748); assay: FXIIa inhibitor potency, concentration-response, biochemical (AID 716); format: functional
T3 sequence (P00748 whole entry): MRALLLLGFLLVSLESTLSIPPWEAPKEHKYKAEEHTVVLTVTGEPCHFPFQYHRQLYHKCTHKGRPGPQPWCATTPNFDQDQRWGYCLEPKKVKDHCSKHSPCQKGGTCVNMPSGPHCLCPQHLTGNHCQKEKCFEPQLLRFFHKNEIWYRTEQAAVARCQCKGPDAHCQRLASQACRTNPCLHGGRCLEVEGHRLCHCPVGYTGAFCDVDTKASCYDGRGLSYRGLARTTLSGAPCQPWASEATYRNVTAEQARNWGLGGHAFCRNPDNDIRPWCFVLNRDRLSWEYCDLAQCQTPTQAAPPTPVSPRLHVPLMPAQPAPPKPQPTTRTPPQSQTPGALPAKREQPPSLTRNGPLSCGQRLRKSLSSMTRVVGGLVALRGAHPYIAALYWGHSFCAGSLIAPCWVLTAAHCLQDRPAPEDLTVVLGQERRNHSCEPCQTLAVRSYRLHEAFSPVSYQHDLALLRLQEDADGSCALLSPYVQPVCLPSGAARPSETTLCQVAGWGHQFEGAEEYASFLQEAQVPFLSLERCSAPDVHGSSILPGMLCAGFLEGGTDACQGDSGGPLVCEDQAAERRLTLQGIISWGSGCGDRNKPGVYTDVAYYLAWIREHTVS

Cannabinoid receptor 2 [4] = target: T4, Cannabinoid receptor 2 (Homo sapiens, UniProt P34972); assay: SAR analysis of antagonists of the Cannabinoid Receptor 2 using an Image-Based Assay - Set 3. [Related pubchem assays (depositor defined):AID2013, AID2026]; format: functional
T4 sequence (P34972 whole entry): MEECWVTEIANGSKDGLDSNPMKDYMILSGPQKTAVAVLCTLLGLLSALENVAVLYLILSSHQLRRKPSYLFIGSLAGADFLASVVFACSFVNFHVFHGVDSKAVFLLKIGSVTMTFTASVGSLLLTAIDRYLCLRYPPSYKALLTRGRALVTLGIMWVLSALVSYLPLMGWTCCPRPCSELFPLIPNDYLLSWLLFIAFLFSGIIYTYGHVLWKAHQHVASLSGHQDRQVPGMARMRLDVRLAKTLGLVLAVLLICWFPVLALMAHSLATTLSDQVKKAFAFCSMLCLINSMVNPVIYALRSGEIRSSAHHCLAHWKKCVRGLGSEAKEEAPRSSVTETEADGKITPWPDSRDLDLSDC

[5] = target: G-protein coupled receptor 55 (Homo sapiens, UniProt Q9Y2T6); assay: SAR Analysis of Selective Antagonists of GPR55 using an Image-Based Assay - Set 4. [Related pubchem assays (depositor defined):AID2013, AID2026]; format: functional;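 further: antagonism of response to 5 µM lysophosphatidylinositol agonist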
Sequence of G-protein coupled receptor 55 (Q9Y2T6 whole entry): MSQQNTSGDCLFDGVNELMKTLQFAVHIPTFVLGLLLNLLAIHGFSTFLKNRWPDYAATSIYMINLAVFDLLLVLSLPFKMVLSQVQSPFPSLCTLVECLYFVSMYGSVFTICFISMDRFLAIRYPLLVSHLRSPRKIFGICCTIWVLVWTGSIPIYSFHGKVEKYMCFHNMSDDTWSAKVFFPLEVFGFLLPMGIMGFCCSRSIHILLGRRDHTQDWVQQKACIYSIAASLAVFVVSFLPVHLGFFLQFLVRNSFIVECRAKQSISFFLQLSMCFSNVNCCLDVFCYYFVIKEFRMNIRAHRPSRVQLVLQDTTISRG

Cannabinoid receptor 1 [6] = target: T5, Cannabinoid receptor 1 (Homo sapiens, UniProt P21554); assay: SAR analysis of agonists of the Cannabinoid Receptor 1 using an Image-Based Assay - Set 4. [Related pubchem assays (depositor defined):AID2013, AID2026]; format: functional
T5 sequence (P21554 whole entry): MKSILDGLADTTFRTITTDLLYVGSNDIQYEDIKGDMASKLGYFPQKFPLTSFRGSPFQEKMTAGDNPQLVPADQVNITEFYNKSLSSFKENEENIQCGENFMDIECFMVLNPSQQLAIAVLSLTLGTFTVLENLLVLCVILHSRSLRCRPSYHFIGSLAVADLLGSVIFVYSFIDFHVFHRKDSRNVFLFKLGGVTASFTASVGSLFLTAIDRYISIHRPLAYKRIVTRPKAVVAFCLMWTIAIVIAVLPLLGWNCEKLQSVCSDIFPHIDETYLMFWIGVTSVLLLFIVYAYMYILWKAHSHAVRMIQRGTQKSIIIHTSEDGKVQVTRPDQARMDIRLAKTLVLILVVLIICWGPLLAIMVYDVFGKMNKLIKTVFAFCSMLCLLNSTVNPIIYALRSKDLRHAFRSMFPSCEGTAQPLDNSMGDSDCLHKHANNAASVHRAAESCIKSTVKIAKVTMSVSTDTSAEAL

[7] = target: T6, G-protein coupled receptor 35 (Homo sapiens, UniProt Q9HC97); assay: SAR analysis of Agonists of the GPR35 Receptor using an Image-Based Assay - Set 4. [Related pubchem assays (depositor defined):AID2013, AID2026]; format: functional
T6 sequence (Q9HC97 whole entry): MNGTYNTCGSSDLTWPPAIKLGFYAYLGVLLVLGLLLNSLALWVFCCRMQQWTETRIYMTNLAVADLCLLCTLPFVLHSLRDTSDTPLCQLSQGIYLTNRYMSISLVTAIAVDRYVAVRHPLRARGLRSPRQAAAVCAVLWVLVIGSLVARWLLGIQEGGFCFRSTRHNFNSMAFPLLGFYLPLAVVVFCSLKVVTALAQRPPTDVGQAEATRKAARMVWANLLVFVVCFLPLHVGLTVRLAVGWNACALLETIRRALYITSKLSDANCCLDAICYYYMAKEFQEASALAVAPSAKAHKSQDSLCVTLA

Cannabinoid receptor 2 [8] = target: T4, Cannabinoid receptor 2; assay: SAR analysis of agonists of the Cannabinoid Receptor 2 using an Image-Based Assay - Set 3. [Related pubchem assays (depositor defined):AID2013, AID2026]; format: functional
[9] = target: T6, G-protein coupled receptor 35; assay: SAR analysis of Antagonists of the GPR35 Receptor using an Image-Based Assay - Set 6. [Related pubchem assays (depositor defined):AID2013, AID2026]; format: functional
Cannabinoid receptor 1 [10] = target: T5, Cannabinoid receptor 1; assay: SAR analysis of antagonists of the Cannabinoid Receptor 1 using an Image-Based Assay - Set 4. [Related pubchem assays (depositor defined):AID2013, AID2026]; format: functional
[11] = target: Signal transducer and activator of transcription 1-alpha/beta (Homo sapiens, UniProt P42224); assay: STAT3 inhibitors, late-stage profile, late-stage follow-up, cell-based, STAT1 panel, qPCR, cytotoxicity, panel member STAT1 Inhibition (AID 2078)
[12] = target: Signal transducer and activator of transcription 3 (Homo sapiens, UniProt P40763); assay: STAT3 inhibitors, late-stage profile, late-stage follow-up, cell-based, STAT1 panel, qPCR, cytotoxicity, panel member STAT3 Inhibition (AID 2078)
Sequence of Signal transducer and activator of transcription 3 (P40763 whole entry): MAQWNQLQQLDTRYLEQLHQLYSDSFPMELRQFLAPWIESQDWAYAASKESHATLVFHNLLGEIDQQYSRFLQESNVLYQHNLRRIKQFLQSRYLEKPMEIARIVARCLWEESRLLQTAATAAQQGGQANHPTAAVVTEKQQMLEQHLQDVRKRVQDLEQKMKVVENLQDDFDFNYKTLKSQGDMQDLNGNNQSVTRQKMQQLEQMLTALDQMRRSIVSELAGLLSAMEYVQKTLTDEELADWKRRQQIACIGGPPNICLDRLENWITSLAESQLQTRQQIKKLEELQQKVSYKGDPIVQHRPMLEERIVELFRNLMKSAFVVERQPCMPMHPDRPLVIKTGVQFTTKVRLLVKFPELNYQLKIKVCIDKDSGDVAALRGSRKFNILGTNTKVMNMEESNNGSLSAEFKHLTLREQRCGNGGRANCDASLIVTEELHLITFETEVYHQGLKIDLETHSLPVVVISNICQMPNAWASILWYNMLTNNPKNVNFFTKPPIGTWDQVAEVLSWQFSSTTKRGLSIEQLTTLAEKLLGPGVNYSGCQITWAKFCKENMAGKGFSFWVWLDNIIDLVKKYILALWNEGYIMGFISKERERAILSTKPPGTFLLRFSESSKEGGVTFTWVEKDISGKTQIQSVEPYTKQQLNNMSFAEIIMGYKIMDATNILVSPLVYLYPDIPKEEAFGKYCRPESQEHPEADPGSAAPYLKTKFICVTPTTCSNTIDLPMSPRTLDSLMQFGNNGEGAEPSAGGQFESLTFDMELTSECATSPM

[13] = target: Sphingosine 1-phosphate receptor 1 (Homo sapiens, UniProt P21453); assay: Late-stage fluorescence-based dose-response cell-based assay to identify agonists of the Sphingosine 1-Phosphate Receptor 4 (S1P4): Sphingosine 1-Phosphate Receptor 1 (S1P1) counterscreen assay. [Related pubchem assays (depositor defined):AID1509, AID1523, AID1563, AID1686, AID1701, AID1801, AID463107, AID463225, AID504400]; format: functional
[14] = target: Sphingosine 1-phosphate receptor 3 (Homo sapiens, UniProt Q99500); assay: Late-stage fluorescence-based dose-response cell-based assay to identify agonists of the Sphingosine 1-Phosphate Receptor 4 (S1P4): Sphingosine 1-Phosphate Receptor 3 (S1P3) counterscreen assay. [Related pubchem assays (depositor defined):AID1509, AID1523, AID1563, AID1686, AID1701, AID1801, AID463107, AID463225, AID504400]; format: functional
Sequence of Sphingosine 1-phosphate receptor 3 (Q99500 whole entry): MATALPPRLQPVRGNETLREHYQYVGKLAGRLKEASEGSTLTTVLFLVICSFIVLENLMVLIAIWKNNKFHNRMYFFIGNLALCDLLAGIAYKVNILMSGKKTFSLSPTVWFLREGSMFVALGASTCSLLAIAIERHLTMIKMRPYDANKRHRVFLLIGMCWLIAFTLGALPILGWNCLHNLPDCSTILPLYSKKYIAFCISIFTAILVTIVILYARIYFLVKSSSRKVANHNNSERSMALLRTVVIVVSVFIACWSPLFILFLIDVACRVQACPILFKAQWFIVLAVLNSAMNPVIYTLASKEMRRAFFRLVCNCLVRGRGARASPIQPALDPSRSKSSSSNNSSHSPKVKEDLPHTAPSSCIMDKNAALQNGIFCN

[15] = target: Sphingosine 1-phosphate receptor 5 (Homo sapiens, UniProt Q9H228); assay: Late-stage fluorescence-based dose-response cell-based assay to identify agonists of the Sphingosine 1-Phosphate Receptor 4 (S1P4): Sphingosine 1-Phosphate Receptor 5 (S1P5) counterscreen assay. [Related pubchem assays (depositor defined):AID1509, AID1523, AID1563, AID1686, AID1701, AID1801, AID463107, AID463225, AID504400]; format: functional
Sequence of Sphingosine 1-phosphate receptor 5 (Q9H228 whole entry): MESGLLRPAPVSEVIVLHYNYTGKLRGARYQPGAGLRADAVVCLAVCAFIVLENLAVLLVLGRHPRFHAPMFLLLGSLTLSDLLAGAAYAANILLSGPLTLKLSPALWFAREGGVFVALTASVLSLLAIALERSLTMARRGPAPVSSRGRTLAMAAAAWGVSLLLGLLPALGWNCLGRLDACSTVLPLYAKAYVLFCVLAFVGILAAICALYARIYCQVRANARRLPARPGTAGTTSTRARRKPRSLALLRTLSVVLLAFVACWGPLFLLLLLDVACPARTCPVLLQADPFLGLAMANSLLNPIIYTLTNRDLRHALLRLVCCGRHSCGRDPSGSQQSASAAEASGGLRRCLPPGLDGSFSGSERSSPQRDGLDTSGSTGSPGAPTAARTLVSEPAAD

[16] = target: Sphingosine 1-phosphate receptor 2 (Homo sapiens, UniProt O95136); assay: Late-stage fluorescence-based dose-response cell-based assay to identify agonists of the Sphingosine 1-Phosphate Receptor 4 (S1P4): Sphingosine 1-Phosphate Receptor 2 (S1P2) counterscreen assay. [Related pubchem assays (depositor defined):AID1509, AID1523, AID1563, AID1686, AID1701, AID1801, AID463107, AID463225, AID504400]; format: functional
Sequence of Sphingosine 1-phosphate receptor 2 (O95136 whole entry): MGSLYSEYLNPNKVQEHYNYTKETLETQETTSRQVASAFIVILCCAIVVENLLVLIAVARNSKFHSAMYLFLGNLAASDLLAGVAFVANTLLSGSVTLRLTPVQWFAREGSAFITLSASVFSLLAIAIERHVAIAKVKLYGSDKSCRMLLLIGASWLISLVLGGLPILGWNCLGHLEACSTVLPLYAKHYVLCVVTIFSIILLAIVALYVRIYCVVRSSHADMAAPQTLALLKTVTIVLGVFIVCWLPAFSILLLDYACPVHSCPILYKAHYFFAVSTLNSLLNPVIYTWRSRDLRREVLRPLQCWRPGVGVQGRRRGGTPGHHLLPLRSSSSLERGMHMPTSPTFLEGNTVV

[17] = target: T7, Dual specificity protein phosphatase 6 (Rattus norvegicus, UniProt Q64346); format: functional;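 further: confirmatory in vitro dose-response testing of MKP-3 inhibition; recombinant His-tagged MKP-3 made in E. coli BL21 with OMFP substrate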
T7 sequence (Q64346 whole entry): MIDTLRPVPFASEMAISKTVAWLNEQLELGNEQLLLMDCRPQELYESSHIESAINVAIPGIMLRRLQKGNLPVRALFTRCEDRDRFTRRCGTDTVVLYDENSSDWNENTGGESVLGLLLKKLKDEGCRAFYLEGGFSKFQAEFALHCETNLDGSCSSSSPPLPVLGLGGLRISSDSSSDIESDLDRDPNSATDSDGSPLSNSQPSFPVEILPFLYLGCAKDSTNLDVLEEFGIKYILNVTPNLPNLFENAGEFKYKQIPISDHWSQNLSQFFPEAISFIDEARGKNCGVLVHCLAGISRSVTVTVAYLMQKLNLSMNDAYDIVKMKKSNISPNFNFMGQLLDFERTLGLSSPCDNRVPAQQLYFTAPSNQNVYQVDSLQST

[18] = target: T8, Tyrosine-protein phosphatase non-receptor type 22 (Homo sapiens, UniProt Q9Y2R2); assay: SAR LYP1 Fluorescent Assay using OMFP substrate for In Vitro dose response studies - Set 3. [Related pubchem assays (depositor defined):AID1779, AID1784, AID2140, AID2686]; format: functional
T8 sequence (Q9Y2R2 whole entry): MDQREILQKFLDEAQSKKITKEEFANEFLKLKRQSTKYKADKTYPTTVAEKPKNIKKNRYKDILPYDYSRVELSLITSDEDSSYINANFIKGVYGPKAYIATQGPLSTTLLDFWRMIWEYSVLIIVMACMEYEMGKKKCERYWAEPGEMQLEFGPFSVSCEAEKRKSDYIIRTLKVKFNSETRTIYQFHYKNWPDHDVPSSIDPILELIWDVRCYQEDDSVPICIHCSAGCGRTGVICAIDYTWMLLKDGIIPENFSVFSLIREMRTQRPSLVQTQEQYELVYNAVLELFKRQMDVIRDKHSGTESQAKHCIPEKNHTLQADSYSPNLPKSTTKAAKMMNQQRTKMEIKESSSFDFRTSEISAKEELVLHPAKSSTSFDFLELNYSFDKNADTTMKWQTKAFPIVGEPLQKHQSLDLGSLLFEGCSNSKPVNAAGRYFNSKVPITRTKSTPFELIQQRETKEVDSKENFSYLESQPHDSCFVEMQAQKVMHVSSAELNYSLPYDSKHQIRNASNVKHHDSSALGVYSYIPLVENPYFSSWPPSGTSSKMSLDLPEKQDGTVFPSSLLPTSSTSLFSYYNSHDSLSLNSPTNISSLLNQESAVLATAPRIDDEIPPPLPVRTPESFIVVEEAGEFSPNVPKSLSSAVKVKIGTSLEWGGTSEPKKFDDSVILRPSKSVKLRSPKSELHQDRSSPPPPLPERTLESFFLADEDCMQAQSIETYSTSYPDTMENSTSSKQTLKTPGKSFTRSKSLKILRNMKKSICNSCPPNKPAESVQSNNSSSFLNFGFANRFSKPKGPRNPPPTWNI

[19] = target: T9, Tyrosine-protein phosphatase non-receptor type 7 (Homo sapiens, UniProt P35236); assay: HePTP (PTPN7) phosphatase inhibitor potency, SAR follow-up, biochemical, set 2 (AID 449736); format: functional
T9 sequence (P35236 whole entry): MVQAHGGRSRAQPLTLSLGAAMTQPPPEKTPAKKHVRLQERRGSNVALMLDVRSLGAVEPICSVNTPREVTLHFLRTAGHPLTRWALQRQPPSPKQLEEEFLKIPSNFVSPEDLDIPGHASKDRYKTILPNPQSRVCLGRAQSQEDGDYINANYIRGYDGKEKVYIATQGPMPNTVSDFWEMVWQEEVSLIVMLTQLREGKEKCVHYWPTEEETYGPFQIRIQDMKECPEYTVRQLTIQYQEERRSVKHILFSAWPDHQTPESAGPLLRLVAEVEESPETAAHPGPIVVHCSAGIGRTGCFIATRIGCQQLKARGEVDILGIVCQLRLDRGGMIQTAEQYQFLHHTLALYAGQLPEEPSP

[20] = target: T9, Tyrosine-protein phosphatase non-receptor type 7; assay: redox-dependent HePTP inhibition, mechanism study, biochemical, fluorescence (AID 2068); format: functional
[21] = target: Tyrosine-protein phosphatase non-receptor type 12 (Homo sapiens, UniProt Q05209); assay: SAR Selectivity Analysis of small molecule inhibitors of PEST using pCAP in a fluorescence assay. [Related pubchem assays (depositor defined):AID1779, AID1784, AID2135]; format: functional
Sequence of Tyrosine-protein phosphatase non-receptor type 12 (Q05209 whole entry): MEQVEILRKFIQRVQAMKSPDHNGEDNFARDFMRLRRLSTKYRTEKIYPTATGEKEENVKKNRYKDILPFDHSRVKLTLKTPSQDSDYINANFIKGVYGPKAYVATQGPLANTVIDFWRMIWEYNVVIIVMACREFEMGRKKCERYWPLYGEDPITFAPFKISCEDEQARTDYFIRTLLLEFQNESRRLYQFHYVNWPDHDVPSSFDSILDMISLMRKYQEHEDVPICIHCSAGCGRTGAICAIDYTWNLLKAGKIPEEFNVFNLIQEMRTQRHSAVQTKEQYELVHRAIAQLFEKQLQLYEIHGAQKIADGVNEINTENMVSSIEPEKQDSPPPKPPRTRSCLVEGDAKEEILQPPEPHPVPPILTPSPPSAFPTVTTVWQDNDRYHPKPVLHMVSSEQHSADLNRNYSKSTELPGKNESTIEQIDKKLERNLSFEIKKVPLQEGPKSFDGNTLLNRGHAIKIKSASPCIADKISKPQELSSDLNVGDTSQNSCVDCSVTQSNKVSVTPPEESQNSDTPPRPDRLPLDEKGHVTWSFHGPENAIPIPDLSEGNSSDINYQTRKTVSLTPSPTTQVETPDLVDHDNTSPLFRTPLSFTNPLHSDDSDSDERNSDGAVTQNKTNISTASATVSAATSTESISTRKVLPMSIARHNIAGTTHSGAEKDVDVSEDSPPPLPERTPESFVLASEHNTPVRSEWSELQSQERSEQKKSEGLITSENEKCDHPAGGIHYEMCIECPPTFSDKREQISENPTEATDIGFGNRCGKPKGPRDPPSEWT

[22] = target: T8, Tyrosine-protein phosphatase non-receptor type 22; assay: LYP (PTPN22) phosphatase inhibitor potency, SAR follow-up, biochemical, pCAP fluorogenic substrate, fluorescence, set 3 (AID 449727); format: functional
[23] = target: Dual specificity protein phosphatase 3 (Homo sapiens, UniProt P51452); assay: SAR VHR1 Fluorescent Assay for In Vitro dose response studies Set 2. [Related pubchem assays (depositor defined):AID1654, AID1661, AID1878]; format: functional

COc1cc(NC(=S)NC(=O)CCc2ccccc2)cc(OC)c1
EC50 [1]: > 100 µM (inactive)

CCc1nnc(NC(=O)c2sc3nc4c(cc3c2N)CCCCC4)s1
IC50 [2]: 26.5 µM (active) | IC50 [3]: 16.6 µM (active)

COc1cc(NC(=O)COc2cccc(OC)c2)cc(OC)c1
IC50 (Coagulation factor XII): > 50 µM (inactive)

Cc1nc(N2CCN(C(=O)C(C)C)CC2)c2c3c(sc2n1)CCCC3
IC50 (Cannabinoid receptor 2 [4]): > 32 µM (inactive) | IC50 [5]: 22.7 µM (inactive) | EC50 (Cannabinoid receptor 1 [6]): > 32 µM (inactive) | EC50 [7]: > 32 µM (inactive) | EC50 (Cannabinoid receptor 2 [8]): > 32 µM (inactive) | IC50 [9]: > 32 µM (inactive) | IC50 (Cannabinoid receptor 1 [10]): 14.7 µM (inactive)

Cc1nc(N2CCC(C(O)c3ccccc3)CC2)c2c3c(sc2n1)CCCC3 (centres undefined)
IC50 [11]: > 55.7 µM (inactive) | IC50 [12]: > 55.7 µM (inactive)

Cc1ccc(OCCOc2ccc(Cl)cc2Cl)c(Br)n1
EC50 [13]: > 50 µM (inactive) | EC50 [14]: > 50 µM (inactive) | EC50 [15]: > 50 µM (inactive) | EC50 [16]: > 50 µM (inactive)

COC(=O)COc1ccc(/C=C2\SC(=Nc3ccc(F)cc3)NC2=O)cc1
IC50 [17]: 50.7 µM (active) | IC50 [18]: 3.49 µM (active) | IC50 [19]: 1.58 µM (active) | IC50 [20]: 1.07 µM (active) | IC50 [21]: 975 nM (active) | IC50 [22]: 3.39 µM (active) | IC50 [23]: 2.49 µM (active)
